Experimental data published in patent US10576102B2, “KOC1-derived peptide and vaccine including same” (ONCOTHERAPY SCIENCE, INC., priority 2014, dated 2020).
Entries after “also recorded” stand apart in the source; their conditions may differ.

Experiments:
[1] = system: COS7 cells transfected with both KOC1 and HLA-A*1101; test: Specific CTL activity against target cells expressing KOC1 and HLA-A*1101; format: cell-based, African green monkey; settings: listed as KOC1-A11-10-14
Experimental: (§1) Specifically, peptide-pulsed C1R-A11 (1×10^4 cells/well) was prepared as the stimulator cell. The induced CTLs, i.e., CTL lines and CTL clones, were used as the responder cell. The IFN-gamma ELISPOT assay and IFN-gamma ELISA were performed according to the manufacturer's manual.
A cDNA encoding the open-reading frame of a target gene or HLA-A*1101 was amplified by PCR. The PCR-amplified product was cloned into an expression vector. Either or both of the target gene-expressing vector and the HLA-A*1101-expressing vector were transfected into […], which is a cell line negative for the target gene and HLA, using Lipofectamine 2000 (Invitrogen) following the manufacturer's recommended protocol. Two days after transfection, the transfected cells were harvested using versene (Invitrogen), and used as the target cell for CTL activity assay (5×10^4 cells/well).
The CTL clone established against KOC1-A11-10-14 (SEQ ID NO: 32) was investigated for its ability to recognize target cells expressing KOC1 and the HLA-A*1101 molecule. COS7 cells transfected with both full-length KOC1 and the HLA-A*1101 gene (a specific model of target cells expressing KOC1 and the HLA-A*1101 gene) were prepared as the target cell. COS7 cells transfected with either full-length KOC1 or HLA-A*1101 were prepared as the control.

peptide-pulsed C1R-A11 [2] = test: In vitro CTL induction, IFN-gamma ELISPOT assay (HLA-A*1101); format: cell-based, human; settings: CTLs induced with peptide-pulsed DCs from HLA-A*1101-positive volunteers; day 21; vs peptide-pulsed C1R-A11, compared with unpulsed control
Experimental: (§2) C1R (C1R-A11) that stably expresses HLA-A*1101 was used as a stimulator cell. A cDNA encoding the open-reading frame of HLA-A*1101 was amplified by PCR and cloned into an expression vector. C1R cells were transfected with the expression vector, and then selected using G418 (Invitrogen) for two weeks. The G418-selected cells were seeded into wells containing G418-added culture medium in a 96-well plate, and further cultured for 30 days. The exogenous HLA-A*1101 expression in C1R cells was verified by flow cytometric analysis.
(§3) Monocyte-derived dendritic cells (DCs) were used as the antigen-presenting cell to induce a cytotoxic T lymphocyte (CTL) response against peptides presented on human leukocyte antigens (HLAs). As described in the other sections, DCs were generated in vitro (Nakahara S et al., Cancer Res 2003, 63(14): 4112-8). Specifically, peripheral-blood mononuclear cells isolated from healthy volunteers (HLA-A*1101-positive) with the Ficoll-Paque plus solution (Pharmacia) were separated by attaching to plastic tissue culture dishes (Becton Dickinson) and concentrated as a monocyte fraction. The monocyte-concentrated population was cultured in the presence of 1000 IU/ml granulocyte macrophage colony-stimulating factor (R&D System) and 1000 IU/ml interleukin(IL)-4 (R&D System) in an AIM-V medium (Invitrogen) containing 2% heat-inactivated autologous serum (AS). After seven days of culturing, the cytokine-induced DCs were pulsed with 20 micro-g/ml each of the synthesized peptides in an AIM-V medium at 37 degrees C. for three hours in the presence of 3 micro-g/ml beta 2-microglobulin. The generated cells appeared to express on their cell surface DC-associated molecules such as CD80, CD83, CD86 and HLA class II (data not shown). Next, these peptide-pulsed DCs were inactivated, by X-ray irradiation (20 Gy), and mixed in a 1:20 ratio with autologous CD8^+ T cells obtained by positive selection using the CD8 Positive Isolation Kit (Dynal). These culture products were seeded in a 48-well plate (Corning). Each well was made to contain 1.5×10^4 peptide-pulsed DCs, 3×10^5 CD8^+ T cells and 10 ng/ml IL-7 (R&D System) in 0.5 ml of the AIM-V/2% AS medium. Three days later, these culture products were added with a final concentration of 20 IU/ml IL-2 (CHIRON). On day 7 and day 14, T cells were further stimulated with peptide-pulsed autologous DCs. The DCs were prepared every time by the same method as above. On day 21, after the third peptide stimulation, CTLs were examined against the peptide-pulsed C1R-A11 by a human interferon (IFN)-gamma enzyme-linked immunospot (ELISPOT) assay (Tanaka H et al., Br J Cancer 2001, 84(1): 94-9; Umano Y et al., Br J Cancer 2001, 84(8): 1052-7; Uchida N et al., Clin Cancer Res 2004, 10(24): 8577-86; Suda T et al., Cancer Sci 2006, 97(5): 411-9; Watanabe T et al., Cancer Sci 2005, 96(8): 498-506).
as §1

peptide-pulsed C1R-A11 [3] = test: IFN-gamma ELISA of CTL lines and CTL clones (HLA-A*1101); format: cell-based, human
Experimental: (§4) CTLs were propagated in culture using methods similar to those disclosed by Riddell et al. (Walter E A et al., N Engl J Med 1995, 333(16): 1038-44; Riddell S R et al., Nat Med 1996, 2(2): 216-23). The CTLs were co-cultured in a total of 25 ml AIM-V medium containing 5% AS (AIM-V/5% AS) and 40 ng/ml anti-CD3 antibody with two types of Mitomycin C-treated human B lymphoblastoid cell lines at 5×10^6 cells/flask. One day after beginning of the culturing, 120 IU/ml IL-2 was added to the culture. On days 5, 8 and 11, a fresh AIM-V/5% AS medium containing 30 IU/ml IL-2 was added to the culture (Tanaka H et al., Br J Cancer 2001, 84(1): 94-9; Umano Y et al., Br J Cancer 2001, 84(8): 1052-7; Uchida N et al., Clin Cancer Res 2004, 10(24): 8577-86; Suda T et al., Cancer Sci 2006, 97(5): 411-9; Watanabe T et al., Cancer Sci 2005, 96(8): 498-506).
Dilution of CTLs was carried out to make 0.3, 1 and 3 cells/well in 96 round-bottomed microtiter plates (Nalge Nunc International). The CTLs were co-cultured with two types of Mitomycin C-treated human B lymphoblastoid cell lines at 1×10^4 cells/well in a total of 150 micro-1/well AIM-V/5% AS medium with 30 ng/ml anti-CD3 antibody and 125 IU/ml IL-2. Ten days later, IL-2 was added to the medium at 50 micro-1/well to reach a final concentration of 125 IU/ml. On day 14, the CTL activity was tested, and the CTL clones were propagated using the same method as described above (Uchida N et al., Clin Cancer Res 2004, 10(24): 8577-86; Suda T et al., Cancer Sci 2006, 97(5): 411-9; Watanabe T et al., Cancer Sci 2005, 96(8): 498-506).
as §1

peptide-pulsed C1R-A01 [4] = test: In vitro CTL induction, IFN-gamma ELISPOT assay (HLA-A*0101); format: cell-based, human; settings: CTLs induced with peptide-pulsed DCs from HLA-A*0101-positive volunteers; day 21; vs peptide-pulsed C1R-A01, compared with unpulsed control
Experimental: as §2, with “(C1R-A01)” for “(C1R-A11)”, “HLA-A*0101” for “HLA-A*1101”
as §3, with “(HLA-A*0101-positive)” for “(HLA-A*1101-positive)”, “2-microglobulin.” for “2-microglobulin. The generated cells appeared to express on their cell surface DC-associated molecules such as CD80, CD83, CD86 and HLA class II (data not shown).”, “inactivated” for “inactivated,”, “CTL activities” for “CTLs”, “C1R-A01 cells” for “C1R-A11 by a human interferon (IFN)-gamma enzyme-linked immunospot (ELISPOT) assay”
(§5) Specifically, peptide-pulsed C1R-A01 (1×10^4 cells/well) was prepared as the stimulator cell. The induced CTLs, i.e., CTL lines and CTL clones, were used as the responder cell. The IFN-gamma ELISPOT assay and IFN-gamma ELISA were performed according to the manufacturer's manual.

peptide-pulsed C1R-A01 [5] = test: IFN-gamma ELISA of CTL lines and CTL clone (HLA-A*0101); format: cell-based, human; settings: CTL lines; target cells pulsed with the peptide vs not pulsed; C1R-A01
Experimental: as §4, with “AS” for “AS (AIM-V/5% AS)”, “cells.” for “cells/flask.”
CTLs were seeded to make 1 or 10 cells/well in 96 round-bottomed microtiter plates (Nalge Nunc International). The CTLs were co-cultured with two types of Mitomycin C-treated human B lymphoblastoid cell lines at 1×10^4 cells in a total of 150 micro-1/well 5% AS-containing AIM-V medium with 30 ng/ml anti-CD3 antibody and 125 IU/ml IL-2. Ten days later, 50 micro-1 of IL-2 was added to the medium to reach a final IL-2 concentration of 125 IU/ml. On day 14, the CTL activity was tested, and the CTL clones were propagated using the same method as described above (Uchida N et al., Clin Cancer Res 2004, 10(24): 8577-86; Suda T et al., Cancer Sci 2006, 97(5): 411-9; Watanabe T et al., Cancer Sci 2005, 96(8): 498-506).
as §5

Row | Sequence | specific CTL activity of CTL clone against target cells expressing KOC1 and HLA-A*1101 ([1]; COS7 transfected with both full-length KOC1 and HLA-A*1101) | specific CTL activity of CTL clone against control cells ([1]; COS7 transfected with either full-length KOC1 or HLA-A*1101) | peptide-specific CTL activity (IFN-gamma production), ELISPOT (peptide-pulsed C1R-A11 [2]) | IFN-gamma production of CTL clones, ELISA (peptide-pulsed C1R-A11 [3]; CTL clones by limiting dilution, peptide-pulsed C1R-A11, listed as KOC1-A11-10-14) | IFN-gamma production of CTL lines, ELISA (peptide-pulsed C1R-A11 [3]; CTL lines, target cells pulsed with the peptide vs not pulsed, C1R-A11) | peptide-specific CTL activity (IFN-gamma production), ELISPOT (peptide-pulsed C1R-A01 [4]) | IFN-gamma production of CTL lines, ELISA (peptide-pulsed C1R-A01 [5])
1 | APSDLESIFK (a peptide derived from KOC1) [SEQ ID NO: 32] | specific CTL activity; also recorded: potent CTL activity | a significant specific CTL activity was not shown; also recorded: a significant specific CTL activity was not detected | potent IFN-gamma production | Potent IFN-gamma production | potent IFN-gamma production | – | –
2 | ETAVVNVTY (a peptide derived from KOC1) [SEQ ID NO: 87] | – | – | – | – | – | potent IFN-gamma production | potent IFN-gamma production
